Legend:
Format in all cases: in vivo
[1] = system: Sunflower; assay: Test C preemergence; conditions: Rate 31 g/ha, scale 0 to 100
[2] = system: chickweed (Stellaria media); assay: Test C postemergence
Procedure, shortened: (§1)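 Compounds in non-phytotoxic solvent with surfactant applied preemergence to planted seeds and postemergence to plants at 1- to 4-leaf stage (2–18 cm). Kept in greenhouse 12–14 days, then visually rated against controls on a 0 (no effect) to 100 (complete control) scale.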

[3] = system: cocklebur (Xanthium strumarium); assay: Test C postemergence
Procedure, shortened: as §1

[4] = system: yellow nutsedge (Cyperus esculentus); assay: Test C postemergence
Procedure, shortened: as §1

[5] = system: Surinam grass (Brachiaria decumbens); assay: Test C postemergence
Procedure, shortened: as §1

[6] = system: giant foxtail (Setaria faberii); assay: Test C postemergence
Procedure, shortened: as §1

[7] = system: corn (Zea mays); assay: Test C postemergence
Procedure, shortened: as §1

[8] = system: kochia (Kochia scoparia); assay: Test C postemergence
Procedure, shortened: as §1

[9] = system: common ragweed (Ambrosia elatior); assay: Test C postemergence
Procedure, shortened: as §1

[10] = system: pigweed (Amaranthus retroflexus); assay: Test C postemergence
Procedure, shortened: as §1

[11] = system: velvetleaf (Abutilon theophrasti); assay: Test C postemergence
Procedure, shortened: as §1

[12] = system: lambsquarters (Chenopodium album); assay: Test C postemergence
Procedure, shortened: as §1

[13] = system: bermudagrass (Cynodon dactylon); assay: Test C postemergence
Procedure, shortened: as §1

[14] = system: johnsongrass (Sorghum halepense); assay: Test C postemergence
Procedure, shortened: as §1

[15] = system: goosegrass (Eleusine indica); assay: Test C postemergence
Procedure, shortened: as §1

[16] = system: soybean (Glycine max); assay: Test C postemergence
Procedure, shortened: as §1

[17] = system: crabgrass (Digitaria sanguinalis); assay: Test C postemergence
Procedure, shortened: as §1

[18] = system: common ragweed (Ambrosia elatior); assay: Test C preemergence
Procedure, shortened: as §1

[19] = Rate 62 g/ha, scale 0 to 100, 0 no effect, 100 complete control
[20] = Rate 125 g/ha, scale 0 to 100, 0 no effect, 100 complete control
[21] = Rate 250 g/ha, scale 0 to 100 (0 no effect, 100 complete control)

Structure (SMILES): CC(C)(C)c1ccn(C2SCN(c3cccc(OC(F)F)c3)C2=O)n1 (centres unmarked) [Compound 36]
- Plant response rating, Sunflower [1]: 0
- Plant response rating, Chickweed ([2]; Rate 31 g/ha, scale 0 to 100): 0
- Plant response rating, Chickweed [2, 19]: 0
- Plant response rating, Chickweed [2, 20]: 0
- Plant response rating, Chickweed [2, 21]: 50
- Plant response rating, Cocklebur ([3]; Rate 31 g/ha, scale 0 to 100): 0
- Plant response rating, Cocklebur [3, 20]: 0
- Plant response rating, Cocklebur [3, 21]: 0
- Plant response rating, Nutsedge ([4]; Rate 31 g/ha, scale 0 to 100): 0
- Plant response rating, Nutsedge [4, 20]: 0
- Plant response rating, Nutsedge [4, 21]: 30
- Plant response rating, Surinam grass ([5]; Rate 31 g/ha, scale 0 to 100): 0
- Plant response rating, Surinam grass [5, 19]: 0
- Plant response rating, Surinam grass [5, 20]: 0
- Plant response rating, Surinam grass [5, 21]: 0
- Plant response rating, Foxtail, Giant ([6]; Rate 31 g/ha, scale 0 to 100): 0
- Plant response rating, Foxtail, Giant [6, 20]: 0
- Plant response rating, Foxtail, Giant [6, 21]: 20
- Plant response rating, Corn ([7]; Rate 31 g/ha, scale 0 to 100): 0
- Plant response rating, Corn [7, 20]: 0
- Plant response rating, Corn [7, 21]: 20
- Plant response rating, Kochia ([8]; Rate 31 g/ha, scale 0 to 100): 20
- Plant response rating, Kochia [8, 20]: 70
- Plant response rating, Kochia [8, 21]: 80
- Plant response rating, Ragweed, Common ([9]; Rate 31 g/ha, scale 0 to 100): 0
- Plant response rating, Ragweed, Common [9, 20]: 0
- Plant response rating, Ragweed, Common [9, 21]: 30
- Plant response rating, Pigweed ([10]; Rate 31 g/ha, scale 0 to 100): 30
- Plant response rating, Pigweed [10, 20]: 60
- Plant response rating, Pigweed [10, 21]: 60
- Plant response rating, Velvetleaf ([11]; Rate 31 g/ha, scale 0 to 100): 0
- Plant response rating, Velvetleaf [11, 20]: 0
- Plant response rating, Velvetleaf [11, 21]: 30
- Plant response rating, Lambsquarters ([12]; Rate 31 g/ha, scale 0 to 100): 50
- Plant response rating, Lambsquarters [12, 20]: 70
- Plant response rating, Lambsquarters [12, 21]: 70
- Plant response rating, Bermudagrass ([13]; Rate 31 g/ha, scale 0 to 100): 0
- Plant response rating, Bermudagrass [13, 19]: 0
- Plant response rating, Bermudagrass [13, 20]: 0
- Plant response rating, Bermudagrass [13, 21]: 70
- Plant response rating, Johnsongrass ([14]; Rate 31 g/ha, scale 0 to 100): 0
- Plant response rating, Johnsongrass [14, 20]: 0
- Plant response rating, Johnsongrass [14, 21]: 0
- Plant response rating, Goosegrass ([15]; Rate 31 g/ha, scale 0 to 100): 0
- Plant response rating, Goosegrass [15, 20]: 0
- Plant response rating, Goosegrass [15, 21]: 0
- Plant response rating, Soybean ([16]; Rate 31 g/ha, scale 0 to 100): 0
- Plant response rating, Soybean [16, 20]: 0
- Plant response rating, Soybean [16, 21]: 0
- Plant response rating, Crabgrass ([17]; Rate 31 g/ha, scale 0 to 100): 0
- Plant response rating, Crabgrass [17, 20]: 0
- Plant response rating, Crabgrass [17, 21]: 30
- Plant response rating, Ragweed, Common [18, 19]: 0
- Plant response rating, Ragweed, Common ([18]; preemergence, Rate 31 g/ha, scale 0 to 100): 0
- Plant response rating (0 to 100), Ragweed, Common ([18]; preemergence, Rate 250 g/ha, visual evaluation after 12 to 14 days): 50
- Plant response rating, Ragweed, Common ([18]; preemergence, Rate 125 g/ha, scale 0 to 100, 0 no effect, 100 complete control): 30

— patent US7138361B2, “Herbicidal heterocycles” (E. I. du Pont de Nemours and Company, priority 2000, dated 2006)
